Among the data in the supplement of paper PMC6411743 are pEC50 values, retold here.
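Also: lysate dosed with Na-ATP at 0 0.005 0.05 0.5 and 2 mM.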

UniProt Q9BV44, sequence (Q9BV44 whole entry): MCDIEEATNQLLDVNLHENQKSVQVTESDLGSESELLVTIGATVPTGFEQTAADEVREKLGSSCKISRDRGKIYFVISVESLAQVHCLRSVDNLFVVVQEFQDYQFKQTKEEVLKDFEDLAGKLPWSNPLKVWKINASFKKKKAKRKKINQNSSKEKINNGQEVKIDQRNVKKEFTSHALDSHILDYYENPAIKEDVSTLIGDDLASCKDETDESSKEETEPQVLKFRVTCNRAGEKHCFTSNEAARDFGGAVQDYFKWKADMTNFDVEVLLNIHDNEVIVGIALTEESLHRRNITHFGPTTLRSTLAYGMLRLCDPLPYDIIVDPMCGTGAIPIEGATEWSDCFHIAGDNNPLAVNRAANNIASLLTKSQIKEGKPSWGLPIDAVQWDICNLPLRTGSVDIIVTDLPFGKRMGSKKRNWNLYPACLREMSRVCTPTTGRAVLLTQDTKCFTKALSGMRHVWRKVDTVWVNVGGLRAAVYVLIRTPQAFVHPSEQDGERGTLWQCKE
UniProt Q01082, sequence (Q01082 whole entry): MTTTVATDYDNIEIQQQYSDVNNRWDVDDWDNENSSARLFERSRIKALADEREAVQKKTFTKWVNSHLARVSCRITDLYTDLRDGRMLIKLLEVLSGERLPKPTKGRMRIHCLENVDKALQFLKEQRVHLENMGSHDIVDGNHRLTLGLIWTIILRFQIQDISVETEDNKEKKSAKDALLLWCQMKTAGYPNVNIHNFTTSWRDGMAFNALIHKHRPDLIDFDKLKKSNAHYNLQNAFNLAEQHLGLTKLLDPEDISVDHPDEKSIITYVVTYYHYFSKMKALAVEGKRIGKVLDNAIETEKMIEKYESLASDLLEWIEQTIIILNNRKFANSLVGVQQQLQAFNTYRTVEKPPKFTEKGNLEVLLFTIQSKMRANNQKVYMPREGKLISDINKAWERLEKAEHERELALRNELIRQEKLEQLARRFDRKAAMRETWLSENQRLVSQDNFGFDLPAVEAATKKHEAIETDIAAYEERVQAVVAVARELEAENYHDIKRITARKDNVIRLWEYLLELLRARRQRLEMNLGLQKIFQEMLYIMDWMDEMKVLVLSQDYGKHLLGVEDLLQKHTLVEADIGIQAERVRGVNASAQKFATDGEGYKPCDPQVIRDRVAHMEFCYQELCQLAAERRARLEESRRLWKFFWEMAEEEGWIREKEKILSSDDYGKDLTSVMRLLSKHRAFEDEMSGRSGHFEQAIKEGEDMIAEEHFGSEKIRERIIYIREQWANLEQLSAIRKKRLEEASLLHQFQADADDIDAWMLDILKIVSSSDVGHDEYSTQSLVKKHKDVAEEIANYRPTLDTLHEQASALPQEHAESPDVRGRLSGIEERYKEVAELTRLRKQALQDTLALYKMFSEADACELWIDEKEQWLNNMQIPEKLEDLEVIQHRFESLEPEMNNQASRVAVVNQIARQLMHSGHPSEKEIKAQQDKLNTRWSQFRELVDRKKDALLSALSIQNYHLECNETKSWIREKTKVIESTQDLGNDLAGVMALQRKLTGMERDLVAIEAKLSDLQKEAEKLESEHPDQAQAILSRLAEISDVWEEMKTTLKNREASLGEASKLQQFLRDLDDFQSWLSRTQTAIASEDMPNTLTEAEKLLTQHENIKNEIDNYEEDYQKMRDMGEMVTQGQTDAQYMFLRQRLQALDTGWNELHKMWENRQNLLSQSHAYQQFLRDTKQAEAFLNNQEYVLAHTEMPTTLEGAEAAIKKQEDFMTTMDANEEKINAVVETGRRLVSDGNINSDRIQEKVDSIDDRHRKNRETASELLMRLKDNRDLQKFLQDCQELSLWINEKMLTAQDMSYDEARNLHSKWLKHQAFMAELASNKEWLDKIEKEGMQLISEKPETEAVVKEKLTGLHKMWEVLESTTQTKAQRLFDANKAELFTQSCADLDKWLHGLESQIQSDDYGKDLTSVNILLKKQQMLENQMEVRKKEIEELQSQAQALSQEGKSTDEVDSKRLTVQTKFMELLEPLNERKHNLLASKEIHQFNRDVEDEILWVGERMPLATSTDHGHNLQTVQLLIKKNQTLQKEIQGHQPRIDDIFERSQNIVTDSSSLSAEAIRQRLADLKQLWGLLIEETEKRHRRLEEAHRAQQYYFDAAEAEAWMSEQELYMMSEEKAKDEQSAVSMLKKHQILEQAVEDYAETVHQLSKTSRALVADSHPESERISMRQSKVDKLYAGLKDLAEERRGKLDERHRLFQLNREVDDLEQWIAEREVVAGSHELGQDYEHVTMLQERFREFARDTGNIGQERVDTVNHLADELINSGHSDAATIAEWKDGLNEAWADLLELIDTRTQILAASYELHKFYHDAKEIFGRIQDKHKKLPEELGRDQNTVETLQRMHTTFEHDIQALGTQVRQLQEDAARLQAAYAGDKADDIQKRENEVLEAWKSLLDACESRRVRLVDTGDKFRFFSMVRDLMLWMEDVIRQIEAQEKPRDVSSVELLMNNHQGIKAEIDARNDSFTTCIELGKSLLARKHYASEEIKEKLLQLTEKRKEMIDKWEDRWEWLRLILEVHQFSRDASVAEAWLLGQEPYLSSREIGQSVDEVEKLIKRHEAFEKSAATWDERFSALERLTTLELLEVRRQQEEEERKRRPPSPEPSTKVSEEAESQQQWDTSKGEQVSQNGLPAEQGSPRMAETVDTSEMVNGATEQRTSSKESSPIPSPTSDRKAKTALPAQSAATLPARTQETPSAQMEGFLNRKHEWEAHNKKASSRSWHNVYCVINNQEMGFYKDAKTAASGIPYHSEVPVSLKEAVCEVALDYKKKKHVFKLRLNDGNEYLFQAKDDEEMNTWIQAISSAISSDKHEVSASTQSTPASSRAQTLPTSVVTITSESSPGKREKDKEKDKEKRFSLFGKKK
UniProt O15530, sequence (O15530 whole entry): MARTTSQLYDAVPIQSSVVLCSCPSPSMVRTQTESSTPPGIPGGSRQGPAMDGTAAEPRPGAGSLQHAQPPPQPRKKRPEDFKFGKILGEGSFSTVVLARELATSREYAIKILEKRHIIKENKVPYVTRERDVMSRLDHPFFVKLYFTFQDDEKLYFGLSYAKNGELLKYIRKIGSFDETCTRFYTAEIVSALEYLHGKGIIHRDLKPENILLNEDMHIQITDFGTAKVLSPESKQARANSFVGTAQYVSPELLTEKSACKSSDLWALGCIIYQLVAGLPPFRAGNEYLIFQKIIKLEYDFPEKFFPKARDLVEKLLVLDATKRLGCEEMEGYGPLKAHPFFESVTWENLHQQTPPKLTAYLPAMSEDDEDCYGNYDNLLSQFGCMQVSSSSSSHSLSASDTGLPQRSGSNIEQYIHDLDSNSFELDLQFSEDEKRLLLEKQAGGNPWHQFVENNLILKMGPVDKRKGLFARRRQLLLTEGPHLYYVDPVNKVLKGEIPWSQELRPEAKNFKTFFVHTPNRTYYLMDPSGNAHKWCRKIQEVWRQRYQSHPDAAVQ
UniProt Q9BQE3, sequence (Q9BQE3 whole entry): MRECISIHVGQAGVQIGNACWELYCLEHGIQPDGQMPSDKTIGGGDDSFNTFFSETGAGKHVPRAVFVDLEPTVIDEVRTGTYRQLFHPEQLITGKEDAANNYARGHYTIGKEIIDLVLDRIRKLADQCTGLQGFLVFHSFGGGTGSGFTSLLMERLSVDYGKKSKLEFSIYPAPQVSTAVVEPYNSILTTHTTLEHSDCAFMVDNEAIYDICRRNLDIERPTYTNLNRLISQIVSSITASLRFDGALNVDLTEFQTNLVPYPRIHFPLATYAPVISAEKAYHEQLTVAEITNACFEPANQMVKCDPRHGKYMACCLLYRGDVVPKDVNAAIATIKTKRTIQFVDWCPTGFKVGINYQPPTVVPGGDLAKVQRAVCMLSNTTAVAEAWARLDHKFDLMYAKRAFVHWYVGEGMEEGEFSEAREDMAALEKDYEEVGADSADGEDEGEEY
UniProt Q8TED0, sequence (Q8TED0 whole entry): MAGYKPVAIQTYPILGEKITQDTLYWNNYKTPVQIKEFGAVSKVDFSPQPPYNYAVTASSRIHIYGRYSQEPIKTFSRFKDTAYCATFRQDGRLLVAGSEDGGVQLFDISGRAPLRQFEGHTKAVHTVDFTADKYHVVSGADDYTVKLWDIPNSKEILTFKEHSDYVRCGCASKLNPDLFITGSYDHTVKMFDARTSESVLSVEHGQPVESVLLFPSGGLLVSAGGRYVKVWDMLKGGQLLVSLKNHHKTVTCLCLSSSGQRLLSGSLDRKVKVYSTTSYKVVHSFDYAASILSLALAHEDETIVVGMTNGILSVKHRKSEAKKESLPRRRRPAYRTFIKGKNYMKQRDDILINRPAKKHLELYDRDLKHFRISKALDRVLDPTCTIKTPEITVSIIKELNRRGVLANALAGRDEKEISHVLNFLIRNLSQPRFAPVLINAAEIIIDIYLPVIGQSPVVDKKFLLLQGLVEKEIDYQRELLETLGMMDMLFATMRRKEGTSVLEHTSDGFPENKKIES
UniProt Q8NCE0, sequence (Q8NCE0 whole entry): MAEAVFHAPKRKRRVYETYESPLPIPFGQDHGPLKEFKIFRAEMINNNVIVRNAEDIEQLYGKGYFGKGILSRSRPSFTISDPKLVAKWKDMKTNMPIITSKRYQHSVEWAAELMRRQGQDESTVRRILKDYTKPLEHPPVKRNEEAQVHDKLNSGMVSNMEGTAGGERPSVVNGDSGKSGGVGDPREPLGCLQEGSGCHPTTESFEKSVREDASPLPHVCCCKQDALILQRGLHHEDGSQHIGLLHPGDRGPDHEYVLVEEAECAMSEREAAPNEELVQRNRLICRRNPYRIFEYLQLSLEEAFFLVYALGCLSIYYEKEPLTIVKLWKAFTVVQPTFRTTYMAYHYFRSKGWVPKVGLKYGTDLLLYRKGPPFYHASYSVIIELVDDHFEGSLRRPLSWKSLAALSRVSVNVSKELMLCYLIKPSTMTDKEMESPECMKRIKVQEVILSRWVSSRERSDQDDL
UniProt Q8WVK2, sequence (Q8WVK2 whole entry): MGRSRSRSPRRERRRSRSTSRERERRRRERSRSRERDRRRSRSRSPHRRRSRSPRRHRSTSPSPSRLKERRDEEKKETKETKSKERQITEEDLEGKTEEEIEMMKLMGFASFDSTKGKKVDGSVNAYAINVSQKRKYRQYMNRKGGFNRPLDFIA

Compound in this test: Nc1ncnc2c1ncn2[C@@H]1O[C@H](COP(=O)(O)OP(=O)(O)OP(=O)(O)O)[C@@H](O)[C@H]1O [adenosine triphosphate]
Put plainly: pEC50 of ATP-induced change in protein thermal stability (2D-TPP). A digest of the protocol:
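pEC50 was obtained by fitting dose-response curves for each replicate over pairs of adjacent temperatures, and hits were assigned using permutation-based false discovery rate control. The input came from Jurkat crude lysate treated with five concentrations including vehicle (10 min, room temperature), heated at 12 temperatures from 42 to 63.9 °C for 3 min, then given NP40 and benzonase (60 min, 4 °C). After ultracentrifugation, soluble protein was quantified by TMT LC-MS/MS as median-normalised fold changes versus vehicle per temperature, across three independent experiments.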
For “SMARCC1 (effect direction: stabilized) (UniProt Q92922)”, the pEC50 turned out to be 3.43.

“SMC1A (effect direction: stabilized) (UniProt Q14683)”: the negative logarithm of the EC50 (pEC50) came to 3.41.

“SMC2 (effect direction: stabilized) (UniProt O95347)”: the pEC50 was 3.49.

With “SMC3 (effect direction: stabilized) (UniProt Q9UQE7)”, the pEC50 came to 3.41.

For “SMC4 (effect direction: stabilized) (UniProt Q9NTJ3)”, the pEC50 amounted to 3.54.

Turning to “SMG6 (effect direction: stabilized) (UniProt Q86US8)”, the pEC50 amounted to 3.49.

On to “SND1 (effect direction: stabilized) (UniProt Q7KZF4)”, for which the negative logarithm of the EC50 (pEC50) is 3.22.

“SNRNP27 (effect direction: stabilized) (UniProt Q8WVK2)”: the negative-log EC50 (pEC50) was 3.64.

Take “SNRPA1 (effect direction: stabilized) (UniProt P09661)”: the pEC50 was less than 2.7.

On to “SNRPB (effect direction: destabilized) (UniProt P14678)”, for which the pEC50 was less than 2.7.

For “SNX1 (effect direction: stabilized) (UniProt Q13596)”, the pEC50 is less than 2.7.

“SNX2 (effect direction: stabilized) (UniProt O60749)”: the pEC50 is less than 2.7.

For the target “SNX5 (effect direction: stabilized) (UniProt Q9Y5X3)”, the negative logarithm of the EC50 (pEC50) was less than 2.7.

On to “SNX6 (effect direction: stabilized) (UniProt Q9UNH7)”, for which the pEC50 was less than 2.7.

With “SPAST (effect direction: stabilized) (UniProt Q9UBP0)”, the pEC50 is 3.34.

With “SPATA5 (effect direction: stabilized) (UniProt Q8NB90)”, the negative logarithm of the EC50 (pEC50) came to 2.96.

On to “SPG7 (effect direction: stabilized) (UniProt Q9UQ90)”, for which the pEC50 is 4.48.

Take “SPN (effect direction: destabilized) (UniProt P16150)”: the pEC50 came out at 3.88.

In the case of “SPTBN1 (effect direction: stabilized) (UniProt Q01082)”, the pEC50 is less than 2.7.

On to “SRC (effect direction: stabilized) (UniProt P12931)”, for which the pEC50 turned out to be 3.37.

On to “SRFBP1 (effect direction: destabilized) (UniProt Q8NEF9)”, for which the negative-log EC50 (pEC50) was determined as 2.86.

As to “SRPK1 (effect direction: stabilized) (UniProt Q96SB4)”, the pEC50 stood at 3.64.

Consider “SRPRB (effect direction: stabilized) (UniProt Q9Y5M8)”, for which the pEC50 stood at 3.22.

For “SRRM2 (effect direction: stabilized) (UniProt Q9UQ35)”, the pEC50 is less than 2.7.

With “SSB (effect direction: stabilized) (UniProt P05455)”, the pEC50 is less than 2.7.

Consider “ST13 (effect direction: stabilized) (UniProt P50502)”, for which the pEC50 is 3.1.

As for “STAG2 (effect direction: stabilized) (UniProt Q8N3U4)”, the pEC50 came to 4.09.

In the case of “STXBP2 (effect direction: stabilized) (UniProt Q15833)”, the pEC50 was less than 2.7.

As to “SUB1 (effect direction: destabilized) (UniProt P53999)”, the pEC50 came out at 3.37.

Consider “SUPV3L1 (effect direction: stabilized) (UniProt Q8IYB8)”, for which the pEC50 was determined as 3.12.

In the case of “SWAP70 (effect direction: stabilized) (UniProt Q9UH65)”, the pEC50 was less than 2.7.

Take “TARDBP (effect direction: stabilized) (UniProt Q13148)”: the negative-log EC50 (pEC50) turned out to be 3.21.

“TBCB (effect direction: stabilized) (UniProt Q99426)”: the negative-log EC50 (pEC50) is less than 2.7.

As for “TBP (effect direction: destabilized) (UniProt P20226)”, the pEC50 is 3.12.

Regarding “TCP1 (effect direction: stabilized) (UniProt P17987)”, the pEC50 came out at 4.76.

Consider “THOC1 (effect direction: stabilized) (UniProt Q96FV9)”, for which the negative-log EC50 (pEC50) was less than 2.7.

With “THUMPD3 (effect direction: stabilized) (UniProt Q9BV44)”, the negative-log EC50 (pEC50) was 3.1.

With “TLK2 (effect direction: stabilized) (UniProt Q86UE8)”, the negative logarithm of the EC50 (pEC50) worked out at 3.07.

Regarding “TLN1 (effect direction: stabilized) (UniProt Q9Y490)”, the pEC50 was less than 2.7.

Consider “TMEM33 (effect direction: stabilized) (UniProt P57088)”, for which the negative-log EC50 (pEC50) was determined as 3.04.

Consider “TMEM173 (effect direction: stabilized) (UniProt Q86WV6)”, for which the negative logarithm of the EC50 (pEC50) amounted to 3.26.

As for “TOR1A (effect direction: stabilized) (UniProt O14656)”, the pEC50 was found to be 4.09.

As to “TPP1 (effect direction: stabilized) (UniProt O14773)”, the pEC50 came to 3.26.

With “TRAP1 (effect direction: stabilized) (UniProt Q12931)”, the pEC50 is 3.33.

Regarding “TRIM21 (effect direction: stabilized) (UniProt P19474)”, the pEC50 was 2.77.

Regarding “TRIM28 (effect direction: stabilized) (UniProt Q13263)”, the pEC50 is less than 2.7.

Consider “TRMU (effect direction: stabilized) (UniProt O75648)”, for which the pEC50 was determined as 3.31.

As for “TSEN2 (effect direction: stabilized) (UniProt Q8NCE0)”, the pEC50 came out at 3.12.

Take “TSEN34 (effect direction: stabilized) (UniProt Q9BSV6)”: the pEC50 was less than 2.7.

For “TSR1 (effect direction: destabilized) (UniProt Q2NL82)”, the pEC50 was 3.51.

Regarding “TSTA3 (effect direction: stabilized) (UniProt Q13630)”, the pEC50 amounted to 2.73.

For “TTC33 (effect direction: stabilized) (UniProt Q6PID6)”, the pEC50 amounted to 2.91.

For the target “TTC37 (effect direction: stabilized) (UniProt Q6PGP7)”, the pEC50 was determined as 3.19.

Regarding “TTF2 (effect direction: stabilized) (UniProt Q9UNY4)”, the pEC50 worked out at 3.17.

“TUBA1C (effect direction: stabilized) (UniProt Q9BQE3)”: the pEC50 stood at 3.5.

Regarding “TUBB3 (effect direction: stabilized) (UniProt Q13509)”, the pEC50 is 3.69.

Regarding “TUT1 (effect direction: stabilized) (UniProt Q9H6E5)”, the pEC50 was 2.93.

As to “UBA2 (effect direction: stabilized) (UniProt Q9UBT2)”, the pEC50 is less than 2.7.

On to “UBA3 (effect direction: stabilized) (UniProt Q8TBC4)”, for which the negative-log EC50 (pEC50) turned out to be 3.86.

Regarding “UBA5 (effect direction: stabilized) (UniProt Q9GZZ9)”, the pEC50 came out at 3.81.

Consider “UBE2O (effect direction: stabilized) (UniProt Q9C0C9)”, for which the pEC50 was less than 2.7.

In the case of “UBE3A (effect direction: stabilized) (UniProt Q05086)”, the pEC50 is less than 2.7.

For “UBLCP1 (effect direction: destabilized) (UniProt Q8WVY7)”, the negative-log EC50 (pEC50) turned out to be 2.88.

Regarding “UCHL5 (effect direction: stabilized) (UniProt Q9Y5K5)”, the pEC50 was less than 2.7.

“UGDH (effect direction: stabilized) (UniProt O60701)”: the pEC50 was 3.11.

Turning to “UMPS (effect direction: stabilized) (UniProt P11172)”, the pEC50 is less than 2.7.

Regarding “USO1 (effect direction: stabilized) (UniProt O60763)”, the pEC50 is less than 2.7.

For “USP5 (effect direction: stabilized) (UniProt P45974)”, the pEC50 was less than 2.7.

With “USP14 (effect direction: stabilized) (UniProt P54578)”, the pEC50 was less than 2.7.

Take “USP47 (effect direction: stabilized) (UniProt Q96K76)”: the pEC50 is less than 2.7.

As to “UTP15 (effect direction: destabilized) (UniProt Q8TED0)”, the pEC50 worked out at 2.92.

Consider “UniProt O00487 (effect direction: stabilized)”, for which the pEC50 was determined as 4.28.

As for “UniProt O14757 (effect direction: stabilized)”, the pEC50 was determined as 3.26.

On to “UniProt O14920 (effect direction: stabilized)”, for which the negative logarithm of the EC50 (pEC50) was found to be 3.5.

In the case of “UniProt O14965 (effect direction: stabilized)”, the pEC50 came out at 3.25.

As for “UniProt O15530 (effect direction: stabilized)”, the negative logarithm of the EC50 (pEC50) stood at 3.24.

Consider “UniProt O43314 (effect direction: stabilized)”, for which the pEC50 stood at 4.16.

As to “UniProt O43598 (effect direction: stabilized)”, the pEC50 is 3.25.

As to “UniProt O43847 (effect direction: stabilized)”, the pEC50 is less than 2.7.

For the target “UniProt O43929 (effect direction: stabilized)”, the pEC50 was 3.63.

For the target “UniProt O60524 (effect direction: destabilized)”, the negative logarithm of the EC50 (pEC50) came out at 3.06.

As to “UniProt O60610 (effect direction: stabilized)”, the negative-log EC50 (pEC50) was less than 2.7.
